We go through nine compounds from PubChem BioAssay (NCI).

Among the test systems are HS 578T breast; A498 renal; OVCAR-8 ovarian; NCI-H522 lung; U251 CNS; SF-268 CNS; MDA-MB-435; CAKI-1 renal; HT29 colon; K-562 leukemia.
What all share (test): NCI anticancer screen, dose series, 48 h

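Interpolation was linear, between the two tested concentrations surrounding the appropriate level; five concentrations were tested over 48 hours in 96-well plates. GI50: concentration for 50% inhibition of growth. TGI denotes the concentration required for complete inhibition of growth.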 Some results are limits rather than exact numbers.

Regarding `NC(CNO)C(=O)O` (configuration not stated), the TGI with HS 578T breast, in the assay with A498 renal, in the assay on OVCAR-8 ovarian, in the assay with NCI-H522 lung, in the assay with U251 CNS and in the assay with SF-268 CNS was over 100 µM throughout. Also, the TGI in the assay on MDA-MB-435, with CAKI-1 renal and with HT29 colon was over 100 µM in each case.
As for `Cc1ccc(S(=O)(=O)/N=c2\ssc(Nc3ccccc3)c2Cl)cc1`, the GI50 was 16.5 µM in the assay with OVCAR-8 ovarian; 19.8 µM with NCI-H522 lung; 8.92 µM in the assay on U251 CNS; 6.83 µM with SF-268 CNS; 8.41 µM in the assay on MDA-MB-435; 18.4 µM in the assay with K-562 leukemia. Moreover, the GI50 was 7.6 µM in the assay with CAKI-1 renal and 17.2 µM with HT29 colon. For the same compound, the TGI in the assay with OVCAR-8 ovarian was over 50 µM; in the assay with NCI-H522 lung, over 50 µM; with U251 CNS, 21.3 µM; with SF-268 CNS, 21.8 µM; in the assay with MDA-MB-435, 22.1 µM; in the assay on K-562 leukemia, over 50 µM. Further, the TGI in the assay on CAKI-1 renal was 21.1 µM; in the assay on HT29 colon, over 50 µM.
In the case of `ClCc1ccc(-c2ccc(Cn3cnc4c(Cl)nc(Cl)nc43)cc2)cc1`, the GI50 with HS 578T breast was 3.14 µM; in the assay on A498 renal, 2.33 µM; in the assay on NCI-H522 lung it was 2.33 µM; with U251 CNS it was 1.89 µM; in the assay on SF-268 CNS, 2.01 µM; in the assay with MDA-MB-435 it was 2.74 µM. Also, the values for the GI50 in the assay with K-562 leukemia, with CAKI-1 renal and with HT29 colon were 10.4 µM, 1.84 µM and 1.72 µM, respectively. The TGI came to 11.1 µM in the assay on HS 578T breast; 11.4 µM with A498 renal; 6.79 µM with NCI-H522 lung; 3.64 µM in the assay with U251 CNS; 4.77 µM with SF-268 CNS; 9.37 µM in the assay on MDA-MB-435. For the same compound, the figures for the TGI in the assay with K-562 leukemia, with CAKI-1 renal and with HT29 colon were over 100 µM, 4.32 µM and 3.31 µM, respectively.
`Cc1n[nH]c(=S)n1/N=C/c1ccc(F)c(Oc2ccccc2)c1`: the GI50 with HS 578T breast is 33.2 µM; in the assay on OVCAR-8 ovarian it was 35.7 µM; in the assay on NCI-H522 lung, 48.2 µM; with U251 CNS, 50.3 µM; in the assay on SF-268 CNS, 28.4 µM; with MDA-MB-435 it was 28.6 µM. Further, the GI50 in the assay on K-562 leukemia is 54.5 µM; with CAKI-1 renal it was 0.496 µM; in the assay on HT29 colon, 27.5 µM. Besides, the TGI with HS 578T breast was over 100 µM; with OVCAR-8 ovarian, over 100 µM; in the assay on NCI-H522 lung, over 100 µM; in the assay on U251 CNS it was over 100 µM; in the assay on SF-268 CNS, over 100 µM; in the assay on MDA-MB-435, 77.1 µM. For the same compound, the TGI was over 100 µM in the assay with K-562 leukemia, 0.944 µM with CAKI-1 renal and over 100 µM with HT29 colon.
On to `CCCc1cc2cc(-n3nc(C)c4c3CC(C)(C)CC4=O)cc(NC3CCC(O)CC3)c2c(=O)[nH]1` (configuration not stated), for which the GI50 was 0.989 µM in the assay on HS 578T breast; 0.437 µM in the assay on A498 renal; 0.519 µM in the assay with OVCAR-8 ovarian; 0.257 µM in the assay with NCI-H522 lung; 0.607 µM in the assay with U251 CNS; 1.8 µM in the assay with SF-268 CNS. The figures for the GI50 in the assay on MDA-MB-435, in the assay on K-562 leukemia and with HT29 colon were 0.0812 µM, 0.0502 µM and 0.0308 µM, respectively. Further, the TGI with HS 578T breast, in the assay on A498 renal, with OVCAR-8 ovarian, with NCI-H522 lung, in the assay on U251 CNS and in the assay on SF-268 CNS was over 100 µM each time. In addition, the TGI in the assay on MDA-MB-435, with K-562 leukemia and in the assay on HT29 colon was over 100 µM in each case.
In the case of `CC#CS(=O)(=O)c1ccccc1`, the TGI is 41.8 µM with HS 578T breast; 29.3 µM in the assay with A498 renal; 12.5 µM in the assay with OVCAR-8 ovarian; 3.92 µM in the assay with NCI-H522 lung; 25.5 µM in the assay on U251 CNS; 35.2 µM in the assay on SF-268 CNS. The TGI amounted to 22.9 µM in the assay with MDA-MB-435, 2.36 µM in the assay with CAKI-1 renal and 14.4 µM with HT29 colon.
Turning to `COc1cc(/C=C/C(=O)c2ccc(Nc3ncnc4ccccc34)cc2)cc(OC)c1`, the GI50 with HS 578T breast is 8.21 µM; with A498 renal, 5.86 µM; in the assay with OVCAR-8 ovarian, 3.68 µM; in the assay with NCI-H522 lung, 6.69 µM; in the assay on U251 CNS it was 2.24 µM; in the assay on SF-268 CNS it was 3.06 µM. Moreover, the GI50 is 1.8 µM in the assay with MDA-MB-435, 19.3 µM in the assay on CAKI-1 renal and 2.07 µM in the assay with HT29 colon. The TGI with HS 578T breast is 69.8 µM; in the assay with A498 renal, over 100 µM; in the assay with OVCAR-8 ovarian, 17.1 µM; with NCI-H522 lung it was 30.1 µM; in the assay with U251 CNS, 6.75 µM; in the assay with SF-268 CNS, 12.2 µM. In addition, the TGI is 4.14 µM in the assay on MDA-MB-435, over 100 µM in the assay on CAKI-1 renal and 4.05 µM in the assay with HT29 colon.
With `C=C1C(=O)O[C@H]2[C@H]1CC/C(COC(=O)CCCCCCCCC(=O)OC/C1=C/CC[C@@]3(C)O[C@H]3[C@H]3OC(=O)C(=C)[C@@H]3CC1)=C\CC[C@@]1(C)O[C@@H]21`, the GI50 is 2.91 µM in the assay with HS 578T breast; 5.82 µM with A498 renal; 3.07 µM in the assay on OVCAR-8 ovarian; 2.12 µM with NCI-H522 lung; 1.96 µM with U251 CNS; 1.86 µM with SF-268 CNS. The results for the GI50 in the assay on MDA-MB-435, with K-562 leukemia and in the assay with HT29 colon were 2.02 µM, 2.6 µM and 2.08 µM, respectively. Besides, the TGI in the assay on HS 578T breast was 9.88 µM; with A498 renal, 18 µM; in the assay on OVCAR-8 ovarian, 8.1 µM; in the assay on NCI-H522 lung, 4.04 µM; in the assay on U251 CNS, 3.82 µM; in the assay with SF-268 CNS it was 3.84 µM. Also, the values for the TGI with MDA-MB-435, with K-562 leukemia and in the assay with HT29 colon were 4.59 µM, 9.7 µM and 4.12 µM, respectively.
With `COc1ccc(/C(C)=C(\c2ccc(Cl)cc2)c2ccc(OCCN3CCCC3)cc2)cc1F`, the GI50 in the assay with HS 578T breast is 3.77 µM; in the assay with OVCAR-8 ovarian, 4.22 µM; with NCI-H522 lung it was 4.35 µM; with U251 CNS, 3.15 µM; in the assay on SF-268 CNS it was 4.26 µM; with MDA-MB-435 it was 1.48 µM. Moreover, the GI50 in the assay on K-562 leukemia is 0.944 µM; in the assay with CAKI-1 renal, 3.43 µM; with HT29 colon it was 0.724 µM. Further, the TGI with HS 578T breast was determined as 9.55 µM; in the assay with OVCAR-8 ovarian, 9.68 µM; in the assay with NCI-H522 lung, 8.94 µM; in the assay on U251 CNS, 7.17 µM; in the assay with SF-268 CNS, 8.76 µM; with MDA-MB-435, 4.65 µM. In addition, the figures for the TGI in the assay with K-562 leukemia, with CAKI-1 renal and in the assay on HT29 colon were 4.54 µM, 6.69 µM and 3.47 µM, respectively.
